Laboratory results published in PMC12152883, “Bile acids inhibit equilibrative adenosine transport to alter adenosine receptor signaling in cholestasis” (The Journal of Biological Chemistry, 2025).
Several values for one entry are separate records, joined by “and”; a condition that tells them apart may be missing. Identical values can stand only once.

Tests used:
ENT1 [1] = molecular target: T1, ENT1 (Homo sapiens, UniProt Q99808); experiment: Inhibition of 3H-nucleoside influx by BAs in ENT1-expressing Xenopus oocytes; assay type: cell-based; conditions: 3H-Ado 20 μM, sodium-free buffer; for IC50: read-out: ENT1 IC50 (Ado uptake); for ENT1 % uptake inhibition (Ado): BA 100 μM
T1 construct: The complete ORF of ENT1 (amplified using forward primer); expressed in transfected cells; host or cells: Xenopus laevis oocytes injected with in vitro-transcribed capped mRNA from pOX-hENT1
T1 sequence (Q99808 1-456): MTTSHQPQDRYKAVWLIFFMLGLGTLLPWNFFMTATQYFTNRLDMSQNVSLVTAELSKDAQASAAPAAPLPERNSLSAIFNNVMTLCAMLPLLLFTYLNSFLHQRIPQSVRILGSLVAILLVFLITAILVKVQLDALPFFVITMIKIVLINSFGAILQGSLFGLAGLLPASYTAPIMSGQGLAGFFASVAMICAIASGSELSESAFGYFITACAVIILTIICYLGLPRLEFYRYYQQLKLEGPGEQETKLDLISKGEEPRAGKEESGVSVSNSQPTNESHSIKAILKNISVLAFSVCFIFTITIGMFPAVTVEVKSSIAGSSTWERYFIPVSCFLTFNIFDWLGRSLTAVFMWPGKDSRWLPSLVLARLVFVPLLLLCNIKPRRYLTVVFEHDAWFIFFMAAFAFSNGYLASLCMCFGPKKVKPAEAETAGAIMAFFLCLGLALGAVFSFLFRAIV
From the text: (§1) We expressed individual ENTs (ENT1, ENT2, and ENT3) in X. laevis oocytes (as described above) and analyzed the Ado influx from each of the ENTs in the presence of different BAs to better understand whether the inhibition profiles differ across human ENTs. […] We also conducted an analysis of the concentration-dependent inhibition of Ado transport to estimate the IC50 values of the BAs (Fig. 4, D–F and Table 2).
(§2) Inhibition of Ado influx in H2O- and ENT-injected oocytes by treatment with different BAs at 100 μM. D–F, concentration-dependent inhibition of Ado influx in ENT-injected oocytes by different BAs. The bars represent the mean ± SD (n = 8–12 oocytes). A representative experiment from 3 to 5 independent experiments is presented. Statistical analysis was performed using one-way ANOVA with Dunnett’s multiple comparisons test; ∗p < 0.032, ∗∗p < 0.0021, ∗∗∗∗p < 0.0001.
(§3) The generated pOX expression constructs were linearized with either the Not1 or Sac1 restriction enzymes. The digested products were purified via phenol‒chloroform extraction. The mRNAs were synthesized using mMESSAGE mMACHINE (Ambion) transcription kits according to the manufacturer’s instructions. The mRNAs were purified via lithium precipitation. Oocytes were procured from Ecocyte. Prior to experiments, procured oocytes were defolliculated by treating with collagenase A-OR II solution followed by washing with Barth’s solution. Following microscopic verification, selected oocytes were incubated to recover overnight at 25 °C in a shaker incubator. Fifty nanoliters (400–800 ng/μl) of equal amounts of mRNAs were injected into defolliculated oocytes the next day. Expression of plasmids was analyzed after RNA isolation from oocyte extracts and conducting qPCR analysis with gene-specific primers as described earlier ([30]). The injected oocytes were incubated at 15 °C for 24 h before transport assays were performed. […] Uptake was terminated by washing the oocytes three times with arrest buffer containing 20 mM uridine. Individual oocytes were shaken overnight in 10% SDS for complete dissolution, and then the radioactivity was quantified with a Beckman liquid scintillation counter. The data are presented as the mean ± SD (n = 8–12 oocytes). A representative experiment from 3 to 5 independent experiments is presented.

ENT3 = molecular target: T2, ENT3 (Homo sapiens, UniProt Q9BZD2); experiment: Inhibition of 3H-nucleoside influx by BAs in ENT3-expressing Xenopus oocytes; assay type: cell-based; conditions: for IC50 / ENT3 % uptake inhibition (Ado): 3H-Ado 20 μM, sodium-free buffer; for IC50: read-out: ENT3 IC50 (Ado uptake)
T2 construct: plasma membrane–directed ENT3 with a truncated N-terminus (that harbors lysosomal targeting motif); expressed in transfected cells; host or cells: Xenopus laevis oocytes injected with in vitro-transcribed mRNA from pOX-Δ36hENT3
T2 sequence (Q9BZD2 with tags, fused parts or gaps): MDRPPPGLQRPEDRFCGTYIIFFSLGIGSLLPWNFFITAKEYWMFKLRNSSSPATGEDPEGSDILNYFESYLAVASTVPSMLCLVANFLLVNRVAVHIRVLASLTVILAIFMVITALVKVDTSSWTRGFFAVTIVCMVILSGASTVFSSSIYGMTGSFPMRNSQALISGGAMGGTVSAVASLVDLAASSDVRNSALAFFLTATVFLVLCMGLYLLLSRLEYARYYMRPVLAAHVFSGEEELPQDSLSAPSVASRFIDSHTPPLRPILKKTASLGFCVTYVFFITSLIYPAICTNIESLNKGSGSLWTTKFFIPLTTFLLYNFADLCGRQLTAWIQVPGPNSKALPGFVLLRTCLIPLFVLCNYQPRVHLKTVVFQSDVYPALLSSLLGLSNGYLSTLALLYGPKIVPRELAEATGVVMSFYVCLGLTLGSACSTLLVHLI
From the text: as §1, §2, §3

ENT2 [2] = molecular target: T3, ENT2 (Homo sapiens, UniProt Q14542); experiment: BA transport by ENT2-injected oocytes quantified by LC-MS/MS; assay type: cell-based; parameters: expressed in transfected cells; host or cells: Xenopus laevis oocytes injected with in vitro-transcribed capped mRNA from pOX-hENT2; conditions: pH 7.4, p < 0.001 compared with water-injected oocytes
T3 sequence (Q14542 1-456): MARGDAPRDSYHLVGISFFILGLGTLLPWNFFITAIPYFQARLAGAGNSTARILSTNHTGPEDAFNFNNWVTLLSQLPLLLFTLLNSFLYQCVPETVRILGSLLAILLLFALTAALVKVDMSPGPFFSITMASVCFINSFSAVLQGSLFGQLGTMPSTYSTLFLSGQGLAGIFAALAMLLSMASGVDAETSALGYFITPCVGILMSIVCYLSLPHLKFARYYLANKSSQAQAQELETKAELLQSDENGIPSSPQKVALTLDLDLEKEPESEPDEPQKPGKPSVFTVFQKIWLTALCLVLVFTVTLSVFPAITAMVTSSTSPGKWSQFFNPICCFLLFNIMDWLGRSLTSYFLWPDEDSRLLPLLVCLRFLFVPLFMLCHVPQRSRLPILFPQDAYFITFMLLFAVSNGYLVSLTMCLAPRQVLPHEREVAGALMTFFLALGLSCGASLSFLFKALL
Procedure: Therefore, we studied several different BAs and used a liquid chromatography–tandem mass spectrometry (LC‒MS/MS) method to quantify the transport activity of H2O-injected and ENT2 mRNA-injected oocytes using TCA as a positive control. […] We subsequently tested the ability of ENT2 to transport BAs at different physiological pH values ranging from pH 5.5 to pH 7.4 by varying the pH of the transport buffers in which the assay was conducted.
The mass spectrometric validation of the transport of all metabolites was performed with oocytes using a previously reported method ([24]). […] After an incubation at 4 °C for 24 h, the samples were centrifuged at 20,000g for 10 min, and the supernatants were collected. The samples (10 μl) were injected into a Thermo Scientific Vanquish UPLC system interfaced with a Thermo Scientific TSQ Quantiva triple-stage quadrupole mass spectrometer equipped with an H-ESI ion source. MS detection was conducted in negative ionization mode, and the transitions monitored for each metabolite are listed in Sup. Table S2. The operational mass spectrometric parameters included a capillary voltage of 4.5 kV; sheath gas of 35 arbitrary units; auxiliary gas of 10 arbitrary units; sweep gas of two arbitrary units; ion transfer tube temperature of 350 °C; vaporizer temperature of 450 °C; dwell time of 50 ms per transition; collision energy of 5 V; and collision-induced dissociation gas of 1.5 mTorr. Chromatographic separation was performed on a Kinetex […] (100 × 2.1 mm; 1.7 μm particle size) from Phenomenex. The mobile phase consisted of solvent A: water (0.1% formic acid) and solvent B: acetonitrile (0.1% formic acid). The flow rate was set at 0.3 ml/min, and the autosampler was maintained at 4 °C throughout the analysis.

ENT2 [3] = molecular target: T3, ENT2; experiment: Inhibition of 3H-nucleoside influx by BAs in ENT2-expressing Xenopus oocytes; assay type: cell-based; parameters: expressed in transfected cells; host or cells: Xenopus laevis oocytes injected with in vitro-transcribed capped mRNA from pOX-hENT2; conditions: for IC50 / ENT2 % uptake inhibition (Ado): 3H-Ado 20 μM, sodium-free buffer; for IC50: read-out: ENT2 IC50 (Ado uptake)
From the text: as §1, §2, §3

ENT1 [4] = conditions: classical nucleoside transporter inhibitors; no reference given; cited from earlier work
ENT2 [5] = conditions: classical nucleoside transporter inhibitors; no reference given; cited from earlier work
ENT2 [6] = molecular target: T3, ENT2; experiment: Inhibition of 3H-CA transport by ENT2 in oocytes by nucleoside transporter inhibitors; assay type: cell-based; parameters: expressed in transfected cells; host or cells: Xenopus laevis oocytes injected with in vitro-transcribed capped mRNA from pOX-hENT2; conditions: inhibitor at 10 μM (Fig. 2D legend 100 μM), pH 7.4
Procedure: Next, we asked whether the transport patterns of the above BAs mediated by ENT2 are similar to those of nucleoside transport in terms of pharmacological inhibition or pH-dependent properties.
Oocytes were procured from Ecocyte. Prior to experiments, procured oocytes were defolliculated by treating with collagenase A-OR II solution followed by washing with Barth’s solution. Following microscopic verification, selected oocytes were incubated to recover overnight at 25 °C in a shaker incubator. Fifty nanoliters (400–800 ng/μl) of equal amounts of mRNAs were injected into defolliculated oocytes the next day. […] The injected oocytes were incubated at 15 °C for 24 h before transport assays were performed. The uptake of radiolabeled substrates was measured after a 30 min incubation in transport buffer (100 mM NaCl, 2 mM KCl, 1 mM CaCl2, 1 mM MgCl2, and 10 mM Hepes, pH 7.4) at room temperature. Uptake was terminated by washing the oocytes three times with arrest buffer containing 20 mM uridine. Individual oocytes were shaken overnight in 10% SDS for complete dissolution, and then the radioactivity was quantified with a Beckman liquid scintillation counter. The data are presented as the mean ± SD (n = 8–12 oocytes). A representative experiment from 3 to 5 independent experiments is presented.

SMILES	IC50 (ENT1 [1]) [µM]	ENT1 % uptake inhibition (Ado) (ENT1 [1]) [%]	IC50 (ENT3) [µM]	ENT3 % uptake inhibition (Ado) (ENT3; BA 100 μM) [%]	transport by ENT2 mRNA-injected vs water-injected oocytes (LC-MS/MS) (ENT2 [2])	IC50 (ENT2 [3]) [µM]	ENT2 % uptake inhibition (Ado) (ENT2 [3]; BA 100 μM)	further results
C[C@H](CCC(=O)O)[C@H]1CC[C@H]2[C@@H]3[C@H](O)C[C@@H]4C[C@H](O)CC[C@]4(C)[C@H]3CC[C@]12C [CDCA, chenodeoxycholic acid]	24.3 ± 7	69.12	0.3 ± 0.1	77.0	significant transport	22.9 ± 4.9	66.07%	inhibition of guanosine transport mediated by ENT2 (ENT2 [3]; BA 100 μM, 3H-guanosine 20 μM): not statistically significant
C[C@H](CCC(=O)NCC(=O)O)[C@H]1CC[C@H]2[C@@H]3[C@H](O)C[C@@H]4C[C@H](O)CC[C@]4(C)[C@H]3C[C@H](O)[C@]12C [GCA, glycocholic acid]	39.5 ± 8.5	35.05	10.7 ± 4.6	68.0	significant transport	16.7 ± 3.9	72.22%	–
C[C@H](CCC(=O)O)[C@H]1CC[C@H]2[C@@H]3CC[C@@H]4C[C@H](O)CC[C@]4(C)[C@H]3CC[C@]12C [LCA]	66.9 ± 15.4	32.59	88.8 ± 27.4	71.2	–	18.4 ± 4.5	71.04%	–
O=[N+]([O-])c1ccc(CSc2ncnc3c2ncn3C2OC(CO)C(O)C2O)cc1 (centres unmarked) [NBMPR, nitrobenzylthioinosine]	–	–	–	–	–	–	–	Ki (ENT1 [4]): ~0.01 µM; Ki (ENT2 [5]): ~10 µM; reduction of 3H-CA transport by ENT2 compared with uninhibited control (ENT2 [6]): 53.38%
C[C@H](CCC(=O)NCCS(=O)(=O)O)[C@H]1CC[C@H]2[C@@H]3[C@@H](O)C[C@@H]4C[C@H](O)CC[C@]4(C)[C@H]3CC[C@]12C [TUDCA, tauroursodeoxycholic acid]	204 ± 63	42.72	35.3 ± 16.4	62.6	–	4.9 ± 1.1	77% and 77.30%	inhibition of guanosine transport activity of ENT3 (ENT3; BA 100 μM, 3H-guanosine 20 μM): inhibited
C[C@H](CCC(=O)O)[C@H]1CC[C@H]2[C@@H]3[C@@H](O)[C@@H](O)[C@@H]4C[C@H](O)CC[C@]4(C)[C@H]3CC[C@]12C [beta-muricholic acid]	–	–	–	–	significant transport	–	–	–
COc1cc(C(=O)OCCCN2CCCN(CCCOC(=O)c3cc(OC)c(OC)c(OC)c3)CC2)cc(OC)c1OC [dilazep]	–	–	–	–	–	–	–	Ki (ENT1 [4]): ~0.01 µM; Ki (ENT2 [5]): ~10 µM; reduction of 3H-CA transport by ENT2 compared with uninhibited control (ENT2 [6]): 38.02%
OCCN(CCO)c1nc(N2CCCCC2)c2nc(N(CCO)CCO)nc(N3CCCCC3)c2n1 [dipyridamole]	–	–	–	–	–	–	–	Ki (ENT1 [4]): ~0.01 µM; Ki (ENT2 [5]): ~10 µM; reduction of 3H-CA transport by ENT2 compared with uninhibited control (ENT2 [6]): 34.57%
C[C@H](CCC(=O)O)[C@H]1CC[C@H]2[C@@H]3[C@H](O)[C@H](O)[C@@H]4C[C@H](O)CC[C@]4(C)[C@H]3CC[C@]12C [hyocholic acid]	–	–	–	–	significant transport	–	–	–
C[C@H](CCC(=O)NCCS(=O)(=O)O)[C@H]1CC[C@H]2[C@@H]3[C@@H](O)[C@@H](O)[C@@H]4C[C@H](O)CC[C@]4(C)[C@H]3CC[C@]12C [tauro-beta-muricholic acid]	–	–	–	–	significant transport	–	–	–
C[C@H](CCC(=O)O)[C@H]1CC[C@H]2[C@@H]3[C@@H](O)C[C@@H]4C[C@H](O)CC[C@]4(C)[C@H]3CC[C@]12C [ursodeoxycholic acid]	–	–	–	–	significant transport	–	–	–
